# Data from patent US6599499B1, “Uses of diterpenoid triepoxides as an anti-proliferative agent” (priority 1999, dated 2003).
# Tests used:
# Type in all cases: cell-based, human
# Dx5 cells = assay: Internucleosomal DNA laddering in Dx5 cells
# Method: Cell death reagents and assays. Cell viability was measured by an MTT assay as recently described (Lee et al. (1999) J. Biol. Chem. 274:13451-13455. z-VAD-fluoromethylketone (z-VAD.fmk) was obtained from Alexis Biochemicals, San Diego, Calif. The effect of z-VAD.fmk on cell viability was analyzed by annexin and propidium iodide staining followed by FACS analysis according to the manufacturer's protocol (Clontech Laboratories, Palo Alto, Calif.). The analysis of apoptosis in histologic sections was done by terminal deoxynucleotidyl transferase (TdT)-mediated d-UTP nick end labeling (TUNEL) of slides from paraffin sections of day 3 tumors harvested from the mice 24 h after the second of two daily treatments with PG490-88 or saline. TUNEL staining was done according to the manufacturer's protocol (Boehringer Mannheim, Indianapolis, Ind.) and then the histology slides were counterstained with methyl green. DNA was isolated from cells for analysis of internucleosomal DNA laddering followed by agarose gel electrophoresis and ethidium bromide staining.
# In FIG. 1A, ZR-75 (breast cancer), H23 (non-small cell lung cancer) and Dx5 (MDR uterine sarcoma) cell lines were treated with PG490 at dosages shown and harvested 48 h later for analysis of cell viability by an MTT assay. […]
# p53 mRNA = p53 mRNA by RT-PCR in MCF-7 cells; conditions: MCF-7 cells treated for 16 h
# Method: RT-PCR. RNA was prepared from MCF-7 cells using Rneasy Mini Kit from Qiagen Inc. (Valencia, Calif.). cDNAs were prepared using M-MLV reverse transcriptase (Gibco) with 2 μg of total RNA. 1/20 of total cDNA was used in limited (25 cycles) PCR reactions using Taq polymerase (Gibco). The following primer pairs were used: p53 [SEQ ID NO:1] 5′-[…]-3′ and 5′-[SEQ ID NO:2] TCTTCUTXGGCTGGGGAGAG-3′, mdm2, [SEQ ID NO:3] 5′-[…]-3′ and [SEQ ID NO:4] 5′-[…]-3′, p21, [SEQ ID NO:5] 5′-[…]-3′ and [SEQ ID NO:6] 5′-[…]-3′, and glyceraldehyde-3-phosphate dehydrogenase (GAPDH)- [SEQ ID NO:7] 5′-[…]-3′ and [SEQ ID NO:8] 5′-[…]-3′.
# In the experiments shown in FIG. 5, RT-PCR was performed using 2 μg of total RNAs extracted from MCF-7 cells. […] GADPH was used as a loading control. The plasmid pBP100-GL2 which contains a p53-binding site in the mdm2 promoter was transiently transfected into MCF-7 cells, and cellular lysates were used for the luciferase assay.
# p53 [1] = assay: p53 protein stability in the presence of cycloheximide
# Method: Immunoblot analysis using other antibodies was performed as described above. The band intensity was measured by NIH Image 1.62.
# Immunoblotting. Cells were harvested at the conditions and times indicated and lysed using HNET buffer (50 mM HEPES, pH 7.5, 100 mM NaCl, 1 mM EGTA, and 1% Triton X-100) supplemented with 1 mM dithiothreitol, 1 mM phenylmethylsulfonyl fluoride, and protease inhibitors mixture (Roche Molecular Biochemicals). 100 μg of protein was loaded on 10% SDS-PAGE followed by transferring to polyvinylidene difluoride membrane. Immunoblotting was performed as described previously using a p53 mouse monoclonal antibody from Oncogene Research Products. […] Immunoblot analysis using other antibodies was performed as described above. The band intensity was measured by NIH Image 1.62.
# p53 [2] = assay: p53 translocation into the nucleus, sub-cellular fractionation of MCF-7 cells; conditions: MCF-7, triptolide 20 ng/ml
# Method: Sub-cellular fractionation of MCF-7 cells. After treatment with triptolide (5 or 20 ng/ml) and/or doxorubicin (100 nM) cytosolic and nuclear extracts were prepared as previously described (Lee et al. (1988) Gene Anal Tech 5:22-31) and 50 μg of each extract was used in SDS/PAGE immunoblot analysis of p53.
smiles,measurement,setting,value
"CC(C)[C@]12O[C@H]1[C@@H]1O[C@]13[C@]1(O[C@H]1C[C@H]1C4=C(CC[C@@]13C)C(=O)OC4)[C@@H]2O [PG490, triptolide]","DNA laddering, time it began",Dx5 cells,6 h
same,"DNA laddering, time of maximum",Dx5 cells,≤ 16 h
same,p53 mRNA level,p53 mRNA,slightly reduced
same,p53 stability versus untreated cells,"p53 [1]; HT1080, triptolide 20 ng/ml 0.5 h prior to cycloheximide 30 μg/ml",no difference from untreated cells at 60 min
same,p53 stability versus untreated cells,"p53 [1]; MCF-7, triptolide 0.5 h prior to cycloheximide 30 μg/ml",no difference from untreated cells at 60 min
same,localisation of the majority of p53,p53 [2],translocated into nuclei
